According to patent US20260200982A1, “HER RECEPTOR DERIVED PEPTIDES AND METHODS OF USE THEREOF” (Ramot at Tel-Aviv University Ltd., priority 2022, published 2026):
“Also recorded” adds a separate entry of the source. The star is where a group is joined. Myristoyl = CCCCCCCCCCCCCC(=O)*

What was measured:
[1] = tested on: LNCaP prostate cancer cells; experiment: Methylene blue viability assay, LNCaP; assay type: cell-based, human; conditions: 72 hours, FIGS. 4B and 4C, read-out: IC50 (cell viability)
Text: Cell lines—Human breast cancer cell lines SKBR3 [Peles E et al. EMBO J. (1993) 12(3):961-71] and MCF7 [Faigenbloom L et al., Mol Syst Biol. (2015) 11(12):845] and human glioblastoma U87 [Goldberg L et al. Cancer Res. (2006) 66(24):11709-17] cell line, as well as Rat-1 fibroblast cells and H-Ras-transformed Rat-1 cells (EJ cells) [Marom M et al. J Biol Chem. (1995) 270(38):22263-70] and human Panc-1 and MIA PaCa-2 pancreatic cell lines (Rak R et al. Oncoscience. 2014 1(1):39-48; Weisz B et al. Oncogene (1999) 18, 2579±2588) were all grown in Dulbecco's modified Eagle's medium (DMEM; Biological Industries, Beithaemek, Israel). Human colorectal cancer cell lines DLD-1 (ATTC Cat No. CCL-221), HCT-116 (ATTC Cat No. CCL-247) and LNCaP prostate cancer cells were grown in Roswell Park Memorial Institute 1640 (RPMI 1640) medium and McCoy's 5A media, respectively (Sigma-Aldrich). All media were supplemented with antibiotics and 10% heat-inactivated fetal bovine serum (FBS; Gibco). Human breast cell line MCF10A [Bott A et al. Oncotarget. […]
Methylene blue viability assay—Cells were plated in 96-wells plates at cell densities of 1.5×10^3 (EJ, DLD-1), 3×10^3 (Rat-1, HCT-116, U87), 5×10^3 (SKBR3, MCF7) and 6×10^3 (MCF10A) cells/well. […] IC-50 values were calculated using a non-linear regression model (logarithmic inhibitor vs. normalized response-variable slope) with the GraphPad Prism 6 software.

[2] = tested on: Panc-1 (pancreatic cancer) tumor xenografts; experiment: Pancreatic Tumor Growth in Nude Mice; assay type: in vivo; conditions: Panc-1 xenografts, 25 μg intraperitoneal daily, FIGS. 9A-C
Procedure: Pancreatic Tumor Growth in Nude Mice—The study was conducted according to the NIH Guidelines for Use and Care of Laboratory Animals and following the approval by Animal Care Committee of the Tel Aviv University. Nude CD1-Nu mice (25-30 g) housed in barrier facilities on a 12-h light/dark cycle one week prior to the injection of tumor cells (day zero). On day zero, 2×10^6 Panc 1 cells in 0.1 ml of PBS were implanted subcutaneously just above the right femoral joint. Tumor size was measured every 3-4 days. When the tumors were apparently seen and the calculated tumor size was 40 mm^3, the animals were divided randomly into two groups of mice (control vehicle treated and myr-NLS (SEQ ID NO: 5) treated; 8 mice per group). Treatment with the myr-NLS (SEQ ID NO: 5) was performed by intraperitoneal injection of 25 μg in 100 μl PBS (or 100 μl PBS for control mice) every day. Tumors size was measured 3 times a week. At the end of the experiment, the mice were sacrificed, and the tumors were dissected and used for further analysis.

[3] = tested on: MIA PaCa-2 cells; experiment: Colony formation assay, MIA PaCa-2; assay type: cell-based, human; conditions: 4.5 μM, 72 hours, FIG. 8
Procedure: Colony formation assay—Cells were plated onto 12-well plate (6×10^4 cells/well) and treated with either PBS or myr-NLS at the IC50 concentration for 3 days. Cells were collected and replated in 10-cm plates (at 3 dilutions of 1:10, 1:20 and 1:40). After 7-14 days when visible and yet separated colonies were formed, the cells were fixed with 0.1% acetic acid in PBS, and stained with 0.4% crystal violet in 0.1% acetic acid. Total colonies area was calculated using the ImageJ program.
In order to test the effect of myr-NLS on cell tumorigenicity, a colony formation assay was performed. To this end, Panc-1 and MIA PaCa-2 cells were treated or untreated for 72 hours with IC50 dose of myr-NLS (SEQ ID NO: 5, 8 μM and 4.5 μM respectively). Cells were then seeded at the same dilutions in new plates until colonies were formed.

[4] = tested on: DLD-1 colon cancer tumor xenografts; experiment: Colon Tumor Growth in Nude Mice; assay type: in vivo; conditions: DLD-1 xenografts, 25 μg/100 μl PBS intraperitoneal daily, FIGS. 14A-C
Procedure: Colon Tumor Growth in Nude Mice—Nude CD1-Nu mice (25-30 g) housed in barrier facilities on a 12-h light/dark cycle one week prior to the injection of tumor cells (day zero). On day zero, 5×10^6 DLD-1 cells were implanted subcutaneously just above the right femoral joint. Tumor size was measured every 3-4 days. When the tumors were apparently seen, the animals were divided randomly into three groups of mice [control vehicle treated, myr-NLS1 (SEQ ID NO: 5), myr-NLS4 (SEQ ID NO: 17)]. Treatment was performed by intraperitoneal injection of 25 μg in 100 μl PBS every day. Mice were weighed and tumors size was measured 3 times a week. At the end of the experiment, the mice were sacrificed, and the tumors were dissected and used for further analysis.

[5] = target: nucleolin (Homo sapiens, UniProt P19338); experiment: Immunoblotting of cell lysates, nucleolin level; assay type: cell-based; design: endogenous in cells; host or cells: DLD-1, Panc-1; conditions: DLD-1 or Panc-1 cells; 24 hours; 25 μM and 10 μM; FIGS. 13A-B
Sequence of nucleolin (P19338 whole entry): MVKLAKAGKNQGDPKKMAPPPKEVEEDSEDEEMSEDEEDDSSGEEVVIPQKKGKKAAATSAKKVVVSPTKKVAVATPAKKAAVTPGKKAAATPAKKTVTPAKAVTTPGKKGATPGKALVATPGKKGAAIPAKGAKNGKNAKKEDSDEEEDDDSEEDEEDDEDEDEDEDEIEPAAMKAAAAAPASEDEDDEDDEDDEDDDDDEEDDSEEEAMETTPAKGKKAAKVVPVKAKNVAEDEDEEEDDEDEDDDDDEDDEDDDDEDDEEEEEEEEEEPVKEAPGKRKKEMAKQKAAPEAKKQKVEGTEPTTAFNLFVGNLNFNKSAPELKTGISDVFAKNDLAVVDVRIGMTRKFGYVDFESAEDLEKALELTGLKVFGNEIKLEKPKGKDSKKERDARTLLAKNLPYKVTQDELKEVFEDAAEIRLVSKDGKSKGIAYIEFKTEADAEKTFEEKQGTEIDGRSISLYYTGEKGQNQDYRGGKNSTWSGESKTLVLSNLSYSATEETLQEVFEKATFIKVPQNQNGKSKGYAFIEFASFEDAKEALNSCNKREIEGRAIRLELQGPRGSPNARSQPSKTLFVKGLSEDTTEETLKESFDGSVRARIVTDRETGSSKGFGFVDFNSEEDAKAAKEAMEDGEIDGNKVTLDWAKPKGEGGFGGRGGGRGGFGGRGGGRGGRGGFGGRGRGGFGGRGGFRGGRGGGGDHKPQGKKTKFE
Procedure: Lysate preparation and immunoblotting—Cells were seeded at cell densities of 1.5×10^5 (DLD-1), 1.8×10^5 (HCT-116) and 2.5×10^5 (SKBR3) cells/well, treated as indicated and grown for 24 hours. Following, cells were lysed in solubilization buffer; the lysates were cleared by centrifugation and a boiling gel sample buffer was added. Proteins were resolved by SDS-polyacrylamide gel electrophoresis through 10% polyacrylamide gels, and were electrophoretically transferred to nitrocellulose membranes. Membranes were blocked in TBST buffer containing 6% milk, and blotted with primary antibodies. Following, a secondary antibody linked to horseradish peroxidase was added. Immunoreactive bands were detected with the enhanced chemiluminescence reagent Immobilon Crescendo Western HRP substrate (WBLUR0100; Merck Millipore).

- IC50 [1]: 7.6 µM
- levels of expression of nucleolin [5]: reduced the levels of expression
Substance: Myr-RRRHIVRKRTLRRLL-OH (Myristoyl-RRRHIVRKRTLRRLL-OH; SMILES CCCCCCCCCCCCCC(=O)N[C@@H](CCCNC(=N)N)C(=O)N[C@@H](CCCNC(=N)N)C(=O)N[C@@H](CCCNC(=N)N)C(=O)N[C@@H](Cc1c[nH]cn1)C(=O)N[C@H](C(=O)N[C@H](C(=O)N[C@@H](CCCNC(=N)N)C(=O)N[C@@H](CCCCN)C(=O)N[C@@H](CCCNC(=N)N)C(=O)N[C@H](C(=O)N[C@@H](CC(C)C)C(=O)N[C@@H](CCCNC(=N)N)C(=O)N[C@@H](CCCNC(=N)N)C(=O)N[C@@H](CC(C)C)C(=O)N[C@@H](CC(C)C)C(=O)O)[C@@H](C)O)C(C)C)[C@@H](C)CC) [myr-NLS]
- tumor growth (tumor size, tumor weight) [2]: significantly reduced tumor cell growth; also recorded: inhibits pancreatic tumor growth
- colony formation (total colonies area) [3]: fewer and smaller colonies
- tumor growth (tumor size, tumor weight) [4]: significantly reduced tumor cell growth
